Test results taken from ChEMBL document CHEMBL6087460, “Generating a Peptide Library Using the Repeats of Amino Acid Scaffolds Created by Sliding the Framework of a 7-mer Human Chemerin Segment and Discovery of Potent Antibacterial and Antimycobacterial Peptides” (J Med Chem, 2025).
The source made the active and inactive calls. The rule behind the calls is not given here. Where a SMILES comes first, the peptide text is derived from it.

Assays:
[1] = Drug localization in cytoplasm of Mycobacterium smegmatis at 1 ug/ml by confocal microscopy; assay type: ADME, subcellular; conditions: mycolicibacterium smegmatis; dose 1 µg/ml
[2] = Drug localization in cell membrane of Escherichia coli ATCC 25922 at 3 times MIC by confocal microscopy; assay type: ADME, cell membranes
[3] = system: Escherichia coli; experiment: Induction of resistance development in Escherichia coli ATCC 25922 assessed as fold increase in MIC at sub-MIC measured after 30 passages relative to control; assay type: functional
[4] = system: Staphylococcus aureus; experiment: Bactericidal activity against Staphylococcus aureus ATCC 25923 at MIC incubated for 45 mins by time kill assay; assay type: functional, organism-based
[5] = Toxicity in BALB/c mouse infected with Mycobacterium bovis BCG assessed as animal survival at 2.5 to 5 mg/kg, iv administered once a day for 2 weeks; assay type: organism-based; conditions: in vivo, 336 h, dose 2.5-5 mg/kg
[6] = Toxicity in BALB/c mouse assessed as animal survival at 15 mg/kg, iv administered thrice at 2 hrs interval measured after 7 days; assay type: organism-based; conditions: in vivo, 168 h, time 7 day
[7] = system: Escherichia coli; experiment: Disruption of plasma membrane integrity in Escherichia coli ATCC 25922 by SYTOX-Green uptake assay; assay type: functional, organism-based
[8] = Toxicity in BALB/c mouse assessed as change in AST level at 15 mg/kg, iv administered thrice at 2 hrs interval measured after 7 days; assay type: organism-based; conditions: in vivo, 168 h, time 7 day
[9] = Hemolytic activity in human RBC measured after 40 mins by absorbance based assay; assay type: toxicity, cell-based, Erythrocyte; conditions: human red blood cells
[10] = system: Escherichia coli; experiment: Antibacterial activity against Escherichia coli ATCC 25922 infected in BALB/c mouse assessed as bacterial count in spleen at 5 mg/kg, iv administered thrice at 1,3 and 5 hrs post-infection measured after 24 hrs post-last dose (Rvb ~ 1.9 x10^7 CFU/mL); assay type: functional; conditions: time 29 hrs
[11] = system: Staphylococcus aureus; experiment: Antibacterial activity against Staphylococcus aureus ATCC 25923 incubated for 16 to 18 hrs in presence of 10 percent human serum by broth dilution assay; assay type: functional; conditions: time 16-18 hrs
[12] = Toxicity in mouse assessed as animal survival at 15 mg/kg, iv administered each day for 5 days measured after 7 days post-last dose; assay type: organism-based; conditions: in vivo, 120 h, time 5 day
[13] = system: Escherichia coli; experiment: Antibacterial activity against Escherichia coli ATCC 25922 infected in BALB/c mouse assessed as bacterial count in blood at 5 mg/kg, iv administered thrice at 1,3 and 5 hrs post-infection measured after 24 hrs post-last dose (Rvb ~ 9.6 x10^6 CFU/mL); assay type: functional; conditions: time 29 hrs
[14] = system: Staphylococcus aureus; experiment: Antibacterial activity against methicillin-resistant Staphylococcus aureus 33591 incubated for 16 to 18 hrs by broth dilution assay; assay type: functional; conditions: time 16-18 hrs
[15] = system: Escherichia coli; experiment: Antibacterial activity against Escherichia coli ATCC 25922 incubated for 16 to 18 hrs by broth dilution assay; assay type: functional; conditions: time 16-18 hrs
[16] = system: Escherichia coli; experiment: Antibacterial activity against Escherichia coli ATCC 25922 infected in BALB/c mouse assessed as bacterial count in kidney at 5 mg/kg, iv administered thrice at 1,3 and 5 hrs post-infection measured after 24 hrs post-last dose (Rvb ~ 1.8 x10^7 CFU/mL); assay type: functional; conditions: time 29 hrs
[17] = system: Staphylococcus aureus; experiment: Antibacterial activity against methicillin-resistant Staphylococcus aureus BAA-44 incubated for 16 to 18 hrs by broth dilution assay; assay type: functional; conditions: time 16-18 hrs
[18] = Cytotoxicity against rat L6 cells assessed as cell viability at 100 uM incubated for 24 hrs by MTT assay relative to control; assay type: toxicity, cell-based; conditions: L6 cells, read-out: Activity
[19] = Stability in 10 percent human serum assessed as compound remaining measured after 60 mins by RP-HPLC analysis; assay type: ADME, cell-free; conditions: 10% human serum, read-out: Stability
[20] = system: Escherichia coli; experiment: Bactericidal activity against Escherichia coli ATCC 25922 at MIC incubated for 45 mins by time kill assay; assay type: functional, organism-based
[21] = system: Pseudomonas aeruginosa; experiment: Antibacterial activity against Pseudomonas aeruginosa ATCC BAA-427 incubated for 16 to 18 hrs by broth dilution assay; assay type: functional; conditions: time 16-18 hrs
[22] = system: Staphylococcus aureus; experiment: Induction of resistance development in Staphylococcus aureus ATCC 25923 assessed as fold increase in MIC at sub-MIC measured after 30 passages relative to control; assay type: functional
[23] = system: Staphylococcus aureus; experiment: Disruption of plasma membrane integrity in Staphylococcus aureus ATCC 25923 by SYTOX-Green uptake assay; assay type: functional, organism-based
[24] = system: Escherichia coli; experiment: Disruption of membrane integrity in Escherichia coli ATCC 25922 by PI staining based analysis; assay type: functional, organism-based
[25] = system: Escherichia coli; experiment: Bactericidal activity against Escherichia coli ATCC 25922 at MIC incubated for 30 mins by time kill assay; assay type: functional, organism-based
[26] = system: Escherichia coli; experiment: Induction of cell membrane damage in Escherichia coli ATCC 25922 at 3 times MIC incubated for 60 mins by SEM analysis; assay type: functional, organism-based
[27] = Hemolytic activity in human RBC assessed as disruption of membrane integrity by Alexa Fluor-Annexin V staining based analysis; assay type: toxicity, cell-based; conditions: erythrocyte
[28] = system: Staphylococcus aureus; experiment: Induction of cell membrane damage in Staphylococcus aureus ATCC 25923 at 3 times MIC incubated for 60 mins by SEM analysis; assay type: functional, organism-based
[29] = system: Klebsiella pneumoniae; experiment: Antibacterial activity against Klebsiella pneumoniae ATCC 27736 incubated for 16 to 18 hrs by broth dilution assay; assay type: functional; conditions: time 16-18 hrs
[30] = Toxicity in mouse assessed as change in serum ALT level at 15 mg/kg, iv administered each day for 5 days measured after 7 days post-last dose; assay type: organism-based; conditions: in vivo, 120 h, time 5 day
[31] = system: Escherichia coli; experiment: Antibacterial activity against Escherichia coli ATCC 25922 infected in BALB/c mouse assessed as bacterial load in blood at 5 mg/kg, iv administered thrice at 1,3 and 5 hrs post-infection measured after 24 hrs post-last dose (Rvb ~ 4 x10^6 CFU/mL); assay type: functional; conditions: time 29 hrs
[32] = system: Staphylococcus aureus; experiment: Disruption of membrane integrity in Staphylococcus aureus ATCC 25923 by PI staining based analysis; assay type: functional, organism-based
[33] = Toxicity in BALB/c mouse assessed as change in ALT level at 15 mg/kg, iv administered thrice at 2 hrs interval measured after 7 days; assay type: organism-based; conditions: in vivo, 168 h, time 7 day
[34] = system: Bacillus subtilis; experiment: Antibacterial activity against Bacillus subtilis 6633 incubated for 16 to 18 hrs by broth dilution assay; assay type: functional; conditions: time 16-18 hrs
[35] = system: Staphylococcus aureus; experiment: Bactericidal activity against Staphylococcus aureus ATCC 25923 at MIC incubated for 30 mins by time kill assay; assay type: functional, organism-based
[36] = system: Staphylococcus aureus; experiment: Induction of resistance development in methicillin-resistant Staphylococcus aureus 33591 assessed as fold increase in MIC at sub-MIC measured after 30 passages relative to control; assay type: functional
[37] = system: Mycolicibacterium smegmatis; experiment: Antimycobacterial activity against Mycobacterium smegmatis assessed as reduction in bacterial growth at 2 times MIC pretreated for 1 hr followed by compound removal and subsequent culturing in fresh media without compound for 24 hrs measured after 4 days; assay type: functional, organism-based
[38] = Retention time of compound by RP-HPLC method; assay type: physicochemical
[39] = system: Escherichia coli; experiment: Induction of membrane depolarization in Escherichia coli ATCC 25922 by diSC3-5 dye based analysis; assay type: functional, organism-based
[40] = Toxicity in mouse assessed as change in serum AST level at 15 mg/kg, iv administered each day for 5 days measured after 7 days post-last dose; assay type: organism-based; conditions: in vivo, 120 h, time 5 day
[41] = system: Staphylococcus aureus; experiment: Bactericidal activity against Staphylococcus aureus ATCC 25923 incubated for 16 to 18 hrs; assay type: functional; conditions: time 16-18 hrs
[42] = system: Mycolicibacterium smegmatis; experiment: Disruption of cell membrane integrity in Mycobacterium smegmatis incubated for 2 hrs by EtBr uptake assay; assay type: functional, organism-based
[43] = system: Escherichia coli; experiment: Antibacterial activity against Escherichia coli ATCC 25922 infected in BALB/c mouse assessed as bacterial count in liver at 5 mg/kg, iv administered thrice at 1,3 and 5 hrs post-infection measured after 24 hrs post-last dose (Rvb ~ 2.3 x10^7 CFU/mL); assay type: functional; conditions: time 29 hrs
[44] = system: Staphylococcus aureus; experiment: Induction of membrane depolarization in Staphylococcus aureus ATCC 25923 by diSC3-5 dye based analysis; assay type: functional, organism-based
[45] = system: Escherichia coli; experiment: Bactericidal activity against Escherichia coli ATCC 25922 incubated for 16 to 18 hrs; assay type: functional; conditions: time 16-18 hrs
[46] = Toxicity in BALB/c mouse infected with Escherichia coli ATCC 25922 assessed as animal survival at 5 mg/kg, iv administered thrice at 1,3 and 5 hrs post-infection measured after 7 days; assay type: organism-based; conditions: in vivo, 168 h, time 7 day
[47] = system: Mycolicibacterium smegmatis; experiment: Antitubercular activity against Mycobacterium smegmatis incubated for 24 hrs by rezasurin dye based assay; assay type: functional
[48] = Cytotoxicity against mouse 3T3-L1 cells assessed as cell viability at 100 uM incubated for 24 hrs by MTT assay relative to control; assay type: toxicity, cell-based; conditions: 3T3-L1 cells, read-out: Activity
[49] = Toxicity in BALB/c mouse infected with Escherichia coli ATCC 25922 assessed as animal survival at 2.5 mg/kg, iv administered thrice at 1,3 and 5 hrs post-infection measured after 7 days; assay type: organism-based; conditions: in vivo, 168 h, time 7 day
[50] = system: Staphylococcus aureus; experiment: Antibacterial activity against Staphylococcus aureus ATCC 25923 incubated for 16 to 18 hrs by broth dilution assay; assay type: functional; conditions: time 16-18 hrs
[51] = system: Staphylococcus aureus; experiment: Induction of resistance development in methicillin-resistant Staphylococcus aureus BAA-44 assessed as fold increase in MIC at sub-MIC measured after 30 passages relative to control; assay type: functional
[52] = system: Escherichia coli; experiment: Antibacterial activity against Escherichia coli ATCC 25922 incubated for 16 to 18 hrs in presence of 10 percent human serum by broth dilution assay; assay type: functional; conditions: time 16-18 hrs

Compound: CC(C)C[C@H](NC(=O)[C@@H](NC(=O)c1cc(C(=O)O)ccc1-c1c2ccc(=[N+](C)C)cc-2oc2cc(N(C)C)ccc12)C(C)C)C(=O)NCC(=O)N[C@@H](CCCNC(=N)N)C(=O)N[C@H](C(=O)N[C@@H](CC(C)C)C(=O)NCC(=O)N[C@@H](CCCNC(=N)N)C(=O)N[C@H](C(=O)N[C@@H](CC(C)C)C(=O)NCC(=O)N[C@@H](CCCNC(=N)N)C(=O)N[C@H](C(=O)N[C@@H](CC(C)C)C(=O)NCC(=O)N[C@@H](CCCNC(=N)N)C(=O)O)C(C)C)C(C)C)C(C)C.[Cl-] (HELM PEPTIDE1{[CN(C)c1ccc2c(-c3ccc(C(=O)O)cc3C(=O)[*:2])c3ccc(=[N+](C)C)cc-3oc2c1].V.L.G.R.V.L.G.R.V.L.G.R.V.L.G.R}$$$$V2.0)
- Drug uptake [1]: Active
- Drug uptake [2]: Active

Compound: H-GRLVGRLVGRLVGRLV-OH
- fold change (FC) [3]: 2
- Activity [4]: Active
- Activity [5]: Non-toxic
- Activity [6]: Non-toxic
- Activity [7]: Active
- Activity [8]: Non-toxic
- HC50 at 40 min [9]: 2 mM
- Activity [10]: 1652 CFU/ml
- MIC [11]: 1.8 µM
- Activity [12]: Non-toxic
- Activity [13]: 1020 CFU/ml
- MIC [14]: 1.8 µM
- MIC [15]: 1.8 µM
- Activity [16]: 2908 CFU/ml
- MIC [17]: 3.6 µM
- viability at 24 h, 100 µM [18]: 75%
- remaining at 1 h [19]: ~80%
- Activity [20]: Active
- MIC [21]: 7.3 µM
- fold change (FC) [22]: 2
- Activity [23]: Active
- Activity [24]: Active
- Activity [25]: Active; Emerged As Swiftest Molecule
- Activity [26]: Active
- Activity [27]: Non-toxic
- Activity [28]: Active
- MIC [29]: 3.6 µM
- Activity [30]: Non-toxic
- Activity [31]: ~800 CFU/ml
- Activity [32]: Active
- Activity [33]: Non-toxic
- MIC [34]: 1.8 µM
- Activity [35]: Active; Emerged As Swiftest Molecule
- fold change (FC) [36]: 2
- Activity [37]: Active
- Retention_time [38]: 20.24 min
- Activity [39]: Active
- Activity [40]: Non-toxic
- MBC [41]: 1.8 µM
- Activity [42]: inactive
- Activity [43]: 1864 CFU/ml
- Activity [44]: Active
- MBC [45]: 1.8 µM
- Survival [46]: 100%
- MIC [47]: 2.5 µM
- viability at 24 h, 100 µM [48]: 75%
- Survival [49]: 60%
- MIC [50]: 1.8 µM
- fold change (FC) [51]: 2
- MIC [52]: 1.8 µM
